Laboratory results from ChEMBL document CHEMBL1201862, “PubChem BioAssay data set” (2004).
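Grown in 96-well plates, cells were treated for 48 hours with each compound at five concentrations. Insufficient inhibition: endpoint recorded as highest concentration tested. GI50 marks 50% less growth.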 Calls of active or inactive are those of the source. Cut-off read from the data, not from the text of the source: active = GI50 up to about 1.1 µM and inactive = higher.

What was measured:
Assay in all cases: NCI-60 cell line screen, 48 h
DU-145 = system: DU-145
A498 = system: A498
NCI-H522 = system: NCI-H522
HOP-62 = system: HOP-62
ACHN = system: ACHN
U-251 = system: U-251
HT-29 = system: HT-29
CCRF-CEM = system: CCRF-CEM
SK-MEL-28 = system: SK-MEL-28
MOLT-4 = system: MOLT-4
KM12 = system: KM12
UO-31 = system: UO-31
M14 = system: M14
NCI-H460 = system: NCI-H460
786-0 = system: 786-0
Hs-578T = system: Hs-578T
RPMI-8226 = system: RPMI-8226
OVCAR-3 = system: OVCAR-3
TK-10 = system: TK-10
K562 = system: K562
SW-620 = system: SW-620
NCI-H23 = system: NCI-H23
A549 = system: A549
EKVX = system: EKVX
NCI-H226 = system: NCI-H226
MDA-MB-231 = system: MDA-MB-231
SF-539 = system: SF-539
SK-MEL-2 = system: SK-MEL-2
RXF 393 = system: RXF 393
PC-3 = system: PC-3
SN12C = system: SN12C
HCT-15 = system: HCT-15
SK-MEL-5 = system: SK-MEL-5
IGROV-1 = system: IGROV-1
CAKI-1 = system: CAKI-1
SNB-75 = system: SNB-75
MDA-N = system: MDA-N
SR = system: SR
COLO 205 = system: COLO 205
UACC-257 = system: UACC-257
UACC-62 = system: UACC-62
OVCAR-4 = system: OVCAR-4
SF-268 = system: SF-268
OVCAR-5 = system: OVCAR-5
BT-549 = system: BT-549
MDA-MB-435 = system: MDA-MB-435
LOX IMVI = system: LOX IMVI
HL-60 = system: HL-60
HOP-92 = system: HOP-92
MCF7 = system: MCF7
T47D = system: T47D
Malme-3M = system: Malme-3M
HCT-116 = system: HCT-116
OVCAR-8 = system: OVCAR-8
SK-OV-3 = system: SK-OV-3
SF-295 = system: SF-295
SNB-19 = system: SNB-19
HCC 2998 = system: HCC 2998
NCI/ADR-RES = system: NCI/ADR-RES

Measured: GI50

O=C(c1cc(Cl)cc(Cl)c1)N1CCN(C(=O)c2cc(Cl)cc(Cl)c2)C1=S
inactive: DU-145 9180 nM | A498 15500 nM | NCI-H522 4380 nM | HOP-62 14800 nM | ACHN 16000 nM | U-251 13100 nM | HT-29 20200 nM | CCRF-CEM 2250 nM | SK-MEL-28 23200 nM | MOLT-4 3940 nM | KM12 11700 nM | UO-31 2310 nM | M14 13200 nM | NCI-H460 16600 nM | 786-0 2400 nM | Hs-578T 24200 nM | RPMI-8226 2380 nM | OVCAR-3 10900 nM | TK-10 10700 nM | K562 8390 nM | SW-620 12200 nM | NCI-H23 17400 nM | A549 17700 nM | EKVX 16800 nM | NCI-H226 23700 nM | MDA-MB-231 15700 nM | SF-539 7280 nM | SK-MEL-2 16800 nM | RXF 393 11800 nM | PC-3 13900 nM | SN12C 11900 nM | SK-MEL-5 16100 nM | IGROV-1 14100 nM | CAKI-1 11900 nM | SNB-75 14100 nM | MDA-N 14100 nM | SR 3260 nM | COLO 205 15900 nM | UACC-257 13300 nM | UACC-62 9910 nM | OVCAR-4 19100 nM | SF-268 13100 nM | OVCAR-5 20600 nM | BT-549 24900 nM | MDA-MB-435 11700 nM | LOX IMVI 3310 nM | HL-60 3310 nM | HOP-92 6650 nM | MCF7 3080 nM | T47D 7060 nM | Malme-3M 11600 nM | HCT-116 16400 nM | OVCAR-8 18600 nM | SK-OV-3 16300 nM | SF-295 20300 nM | SNB-19 18300 nM | HCC 2998 16700 nM
12600 nM: HCT-15

C[C@]12CC[C@H](O)C[C@H]1CC[C@@H]1[C@@H]2CC[C@]2(C)[C@@H](C3=CC(=O)OC3)CC[C@]12O [DIGITOXIGENIN]
101 nM: HCT-15
active: DU-145 40 nM | A498 125 nM | NCI-H522 < 10 nM | HOP-62 40 nM | ACHN < 12.5 nM | U-251 199 nM | HT-29 209 nM | CCRF-CEM 29.7 nM | SK-MEL-28 569 nM | MOLT-4 < 10 nM | KM12 713 nM | UO-31 117 nM | M14 226 nM | NCI-H460 16.8 nM | 786-0 44.7 nM | Hs-578T 67.3 nM | RPMI-8226 75.7 nM | OVCAR-3 36.7 nM | TK-10 94.4 nM | K562 53.6 nM | SW-620 118 nM | NCI-H23 33.8 nM | A549 18.3 nM | EKVX 87.3 nM | NCI/ADR-RES 115 nM | MDA-MB-231 774 nM | SF-539 35.6 nM | SK-MEL-2 321 nM | RXF 393 14.4 nM | PC-3 149 nM | SN12C 34.9 nM | SK-MEL-5 44.7 nM | IGROV-1 66.8 nM | CAKI-1 35.7 nM | SNB-75 299 nM | MDA-N 168 nM | SR 53.1 nM | COLO 205 440 nM | UACC-257 303 nM | UACC-62 360 nM | OVCAR-4 66.2 nM | SF-268 36.7 nM | OVCAR-5 590 nM | BT-549 37.2 nM | MDA-MB-435 217 nM | LOX IMVI 54.7 nM | HL-60 52.4 nM | HOP-92 188 nM | T47D 292 nM | Malme-3M 61.5 nM | HCT-116 25.1 nM | OVCAR-8 147 nM | SK-OV-3 111 nM | SF-295 47.3 nM | SNB-19 851 nM | HCC 2998 235 nM
inactive: NCI-H226 1270 nM
